Assays:
[1] = Relaxivity measurements at 1.41 T in human plasma; type: physicochemical; details: 37° C., normalized to Gd
Procedure, shortened: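 T1 determined by inversion recovery (8 inversion-time steps) and T2 by CPMG sequence, both with relaxation delay ≥5×T1. Each relaxivity used three Gd concentrations between 0.05 and 2 mM. Relaxivities were derived from relaxation rates measured in water and plasma.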

[2] = Biliary elimination in bile duct cannulated (BDC) rats; details: 0.1 mmol Gd/kg bw i.v.
Experimental: All animals are initially anesthetized using a body weight-adjusted intramuscular injection of a mixture (1+2) of xylazine hydrochloride (20 mg/mL, Rompun 2%, Bayer Vital GmbH, Leverkusen) and ketamine hydrochloride (100 mg/mL, Ketavet, Pfizer, Pharmacia GmbH, Berlin) using 1 mL/kg body weight. The continuous anesthesia of the animals is achieved by the intravenous injection of 1.5 mL per hour (Braun perfusor infusion of 1+2, 1:20 saline, xylazine hydrochloride 20 mg/mL, Rompun 2%, Bayer Vital GmbH, Leverkusen and ketamine hydrochloride 100 mg/mL, Ketavet, Pfizer, Pharmacia GmbH, Berlin) via tail vein (Introcan, 24G, yellow). The animals received 0.1 mmol Gd/kg bw as intravenous bolus injection via tail vein (50 mmol Gd/L formulation). Bile was sampled 0-0.5 h, 0.5-1 h, 1-2 h, 2-3 h und 3-4 h post injection. […] The bile fractions (n=3 times 10 μL) were dried for 2 h at 90° C. and 50 μL 65% nitric acid (HNO3, Fa. Fisher, Optima Grade #1219010) and 30 μL hydrogen peroxide 30% (H2O2 Fa VWR Chemicals, AnalaR NORMAPUR, #18J024022) were added and processed in microwave oven (5 cycles: 5 min 40W, 5 min 120W, 10 min 200W, 10 min 320W and 25 min 400W, Fa. CEM, Mars5 Xpress).

[3] = reference compounds, 1.5 T, 37° C., from Rohrer et al.; cited from earlier work
[4] = reference compounds, 1.5 T, 37° C., bovine plasma instead of human plasma, from Rohrer et al.; cited from earlier work

## CCOc1ccc(CCOCC(C(=O)O)N2CCN(CC(=O)[O-])CCN(CC(=O)[O-])CCN(CC(=O)[O-])CC2)cc1.[Gd+3] (stereo not shown) [Example 1, gadolinium 2,2′,2″-(10-{1-carboxy-2-[2-(4-ethoxyphenyl)ethoxy]ethyl}-1,4,7,10-tetraazacyclododecane-1,4,7-triyl)triacetate]
[1]
  r1 human plasma: 6.5 L/mmol/s
[2]; bile fraction 0-0.5 h
  Biliary excretion, % of injected dose, Mean ± SD (cumulative): 55.5 ± 1.7%
[2]; bile fraction 0.5-1 h
  Biliary excretion, % of injected dose, Mean ± SD (cumulative): 62.6 ± 0.7%
[2]; bile fraction 1-2 h
  Biliary excretion, % of injected dose, Mean ± SD (cumulative): 65.1 ± 1.3%
[2]; bile fraction 2-3 h
  Biliary excretion, % of injected dose, Mean ± SD (cumulative): 65.6 ± 1.6%
[2]; bile fraction 3-4 h
  Biliary excretion, % of injected dose, Mean ± SD (cumulative): 65.8 ± 1.7%

## CCOCCOCCOc1ccc(CC(C(=O)O)N2CCN(CC(=O)[O-])CCN(CC(=O)[O-])CCN(CC(=O)[O-])CC2)cc1.[Gd+3] (stereo not shown) [Example 2, gadolinium 2,2′,2″-{10-[1-carboxy-2-{4-[2-(2-ethoxyethoxy)ethoxy]phenyl}ethyl]-1,4,7,10-tetraazacyclododecane-1,4,7-triyl}triacetate]
[1]
  r1 human plasma: 6.2 L/mmol/s

## CCOCCOCCOc1ccc(CCC[C@@H](C(=O)O)N2CCN([C@@H](CO)C(=O)[O-])CCN([C@@H](CO)C(=O)[O-])CCN([C@@H](CO)C(=O)[O-])CC2)cc1.[Gd+3] [Example 15, gadolinium (2S,2′S,2″S)-2,2′,2″-{10-[(1S)-1-carboxy-4-{4-[2-(2-ethoxyethoxy)ethoxy]phenyl}butyl]-1,4,7,10-tetraazacyclododecane-1,4,7-triyl}tris(3-hydroxypropanoate)]
[1]
  r1 human plasma: 8.7 L/mmol/s

## CCOc1ccc(CC(CN(CCN(CC(=O)[O-])CC(=O)[O-])CC(=O)[O-])N(CC(=O)[O-])CC(=O)[O-])cc1.[Gd+3].[Na+].[Na+] (stereo not shown) [RC1, gadoxetate disodium, reference compound]
[3]
  r1 water: 3.3 L/mmol/s
[4]
  r1 plasma (r1 human plasma): 5.2 L/mmol/s

— patent US20260083864A1, “CONTRAST AGENTS FOR USE IN DIAGNOSTIC COMPUTED TOMOGRAPHY IMAGING” (Bayer Aktiengesellschaft, priority 2022, published 2026)
